Data: patent US12220414B2, “Use of sGC stimulators for the treatment of mitochondrial disorders” (Tisento Therapeutics Inc., priority 2018, dated 2025)

Columns and labels:
Pparγ = assay: B-DNA gene expression assay, carbon tetrachloride (CCl4) rat model, liver; format: in vivo, Sprague-Dawley rat; settings: CCl4 rats; 3 mg/kg; FIG. 2C
Protocol: Male, Sprague-Dawley rat were dosed with 0.25 ml/kg of CCl4 PO three times a week diluted in corn oil for the duration of the study (8 weeks). Control animals received an equivalent volume of corn oil. Two weeks after beginning the administration of CCl4, animals were given a chow admixture containing Compound A calculated to achieve doses of 3 mg/kg/day.
(§1) For gene expression analysis, 5-10 mg of tissue samples from ZSF1 rat liver, CCl4 rat liver, or DIO mice brain hypothalamus, or approximately 50 mg of white adipose tissue (WAT) from ZSF1 rat were homogenized and processed using QuantiGene sample processing kit according to manufacturer's instruction (Affymatrix, Fremont, CA). Gene expression in the tissue samples was measured using a QuantiGene 2.0 Plex Assay kit (Affymetrix) and multiplex gene panel specifically designed for each animal model following manufacture instructions. Analytes were measured using Luminex MAGPIX™ (Bio-Rad, Hercules, CA). Median fluorescence intensity (MFI) was generated for each gene target and normalized to the geometric mean expression of selected housekeeping genes, which were chosen to match the target transcript abundance.

Pparα = assay: B-DNA gene expression assay, DIO mouse model, WAT; format: in vivo; settings: DIO mice; 6 mg/kg in diet, 28 days; FIG. 2B (eWAT)
Protocol: (§2) Animals were fed either chow or high fat diet (Research Diets). The lean mice were maintained on a standard chow diet. The obese mice were given 60% high fat diet (HFD) starting at 6 weeks of age. All animals were allowed free access to drinking water and chow. The study began when the mice were 12 weeks of age and concluded after 4 weeks (16 weeks of age). The obese control group was maintained on HFD. Groups receiving compound treatments were fed with HFD containing 90 mg Compound A/kg diet (an approximate dose of 6 mg/kg) or 45 mg vericiguat/kg diet (an approximate dose of 3 mg/kg). Body weights were determined twice weekly and food intake was measured daily for 28 days. […]
as §1, with “Median fluorescence intensity (MFI) was generated for each gene target and normalized to the geometric mean expression of selected housekeeping genes, which were chosen to match the target transcript abundance.” left out

AMPK = assay: B-DNA gene expression assay, DIO mouse model, WAT; format: in vivo; settings: DIO mice; 6 mg/kg in diet, 28 days; FIG. 2A (AMPKα1, eWAT)
Protocol: as §2
as §1, with “Median fluorescence intensity (MFI) was generated for each gene target and normalized to the geometric mean expression of selected housekeeping genes, which were chosen to match the target transcript abundance.” left out

ADMA = settings: diabetic patients; fourteen-day study (Hanrahan et al 2018); cited from earlier work
PGC1α [1] = assay: B-DNA gene expression assay, ZSF1 rat model; format: in vivo; settings: ZSF1 obese rats
Protocol: There are 4 groups of animals in the study design: • 1. ZSF1 Lean—Vehicle (n=6) • 2. ZSF1 Obese—Vehicle (n=9) • 3. ZSF1 Obese—Compound A 10 mg/kg/day (n=9) • 4. […]
Animals in Group 4 was placed on drinking water containing enalapril and kept on Purina 5008 rodent chow (C13000). Animals in Groups 1-3 were kept on Purina 5008 rodent chow and drinking water. Ten days after the initiation of enalapril treatment, […] received Compound A at 10 mg/kg/day, respectively for 11 weeks (monotherapy). Beginning on day 10, animals in Groups 3 and 4 received Compound A at 10 mg/kg/day in addition to enalapril for an additional 11 weeks (combination therapy). […]
as §1, with “Median fluorescence intensity (MFI) was generated for each gene target and normalized to the geometric mean expression of selected housekeeping genes, which were chosen to match the target transcript abundance.” left out

[2] = system: LHON patient cells GM11605; assay: ATP assay (ATPlite); format: cell-based, human; settings: compound alone or in combination with DETA, 24 hrs
Protocol: (§3) Lymphoblast cells of LHON patient (GM11605 and GM10742) and Leigh patient (GM13740) were purchased from Coriell institute and cultured according to recommended growth condition from the vendor. The culture medium RPMI-1640 (ATCC, catalog #30-2006) containing 15% fetal bovine serum (Corning catalog #35-015-CV).
(§4) Corielll cells were plated on 96-well V-bottom culture plate (Corning Catalog #3894) at density of 200,000 cells per well in 90 ul RPMI-1640 media containing 2% FBS. Three hours later, 10 μL per well of 10× compounds (at its final conc.) diluted in RPMI-1640 media containing 2% FBS were added to the cells and incubated at 37 C for 24 hrs. The next day, ATP levels in the cells were measure using ATPlite kit (PerkinElmer Cat #6016943)

[3] = system: Leigh patient cells GM13740; assay: ATP assay (ATPlite); format: cell-based, human; settings: compound alone or in combination with DETA, 24 hrs
Protocol: as §3, §4

[4] = system: LHON patient cells GM10742; assay: ATP assay (ATPlite); format: cell-based, human; settings: compound alone or in combination with DETA, 24 hrs
Protocol: as §3, §4

PGC1α [5] = assay: B-DNA gene expression assay, diet-induced obesity (DIO) mouse model, hypothalamus; format: in vivo; settings: DIO mice, compound in high fat diet; FIG. 1C
Protocol: as §2
as §1, with “Median fluorescence intensity (MFI) was generated for each gene target and normalized to the geometric mean expression of selected housekeeping genes, which were chosen to match the target transcript abundance.” left out

TFAM = assay: bDNA gene expression assay in patient cells; format: cell-based, human; settings: in the presence of DETA
Protocol: as §3
(§5) Coriell cells were plated on 96-well V-bottom culture plate (Corning Catalog #3894) at density of 200,000 cells per well in 90 ul RPMI-1640 media containing 2% FBS. Three hours later, 10 μL per well of 10× compounds (at its final conc.) diluted in RPMI-1640 media containing 2% FBS were added to the cells and incubated at 37 C for 24 hrs. The next day, cells were spun down by centrifuging in a benchtop centrifuge (Beckman Model #TJ-25) at 300 g for 5 min, media was removed and cell pellets were lysed in 100 μL/well with lysis mixture provided by QuantiGene sample processing kit (Affymetrix catalog #QS010). Gene expression in the cell lysates was measured using a QuantiGene 2.0 Plex Assay kit (Affymetrix catalog #QP1013) and multiplex gene panel (Thermo/Fisher, plex set #QGP-150-M19022101) according to manufacturer's protocols. Analytes were measured using Luminex MAGPIX™ (Bio-Rad, Hercules, CA). Median fluorescence intensity (MFI) was generated for each gene target and normalized to the geometric mean expression of three housekeeping genes (Hprt1, Ppib and Polr2a), which were chosen to match the target transcript abundance.

DDAH2 = assay: bDNA gene expression assay in patient cells; format: cell-based, human; settings: in the presence of DETA
Protocol: as §3, §5

sGC = target: T1, sGC (Homo sapiens, UniProt Q02153); assay: cGMP measurement in mitochondrial disease patient lymphoblast cells; format: cell-based; settings: in combination with DETA
T1 construct: confirming functional expression of sGC in these patient cells; host or cells: human LHON and Leigh patient lymphoblast cells
T1 sequence (Q02153 1-619): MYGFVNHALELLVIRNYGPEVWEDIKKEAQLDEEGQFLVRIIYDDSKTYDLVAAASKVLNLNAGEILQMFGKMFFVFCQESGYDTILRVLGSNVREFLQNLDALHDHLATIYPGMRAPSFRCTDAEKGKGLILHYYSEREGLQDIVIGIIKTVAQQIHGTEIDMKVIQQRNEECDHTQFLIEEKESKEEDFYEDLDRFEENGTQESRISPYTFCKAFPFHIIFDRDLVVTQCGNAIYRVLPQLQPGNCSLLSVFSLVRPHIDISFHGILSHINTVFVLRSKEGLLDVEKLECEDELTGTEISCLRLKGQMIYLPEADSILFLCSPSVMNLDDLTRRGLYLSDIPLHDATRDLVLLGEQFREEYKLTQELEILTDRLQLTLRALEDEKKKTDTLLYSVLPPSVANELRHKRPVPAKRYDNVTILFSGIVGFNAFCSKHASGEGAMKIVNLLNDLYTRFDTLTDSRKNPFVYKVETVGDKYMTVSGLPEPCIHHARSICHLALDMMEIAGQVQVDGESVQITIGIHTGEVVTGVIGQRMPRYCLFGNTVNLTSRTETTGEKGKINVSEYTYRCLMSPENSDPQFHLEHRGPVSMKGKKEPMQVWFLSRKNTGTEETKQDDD
T1 sequence (Q02108 1-690 partner): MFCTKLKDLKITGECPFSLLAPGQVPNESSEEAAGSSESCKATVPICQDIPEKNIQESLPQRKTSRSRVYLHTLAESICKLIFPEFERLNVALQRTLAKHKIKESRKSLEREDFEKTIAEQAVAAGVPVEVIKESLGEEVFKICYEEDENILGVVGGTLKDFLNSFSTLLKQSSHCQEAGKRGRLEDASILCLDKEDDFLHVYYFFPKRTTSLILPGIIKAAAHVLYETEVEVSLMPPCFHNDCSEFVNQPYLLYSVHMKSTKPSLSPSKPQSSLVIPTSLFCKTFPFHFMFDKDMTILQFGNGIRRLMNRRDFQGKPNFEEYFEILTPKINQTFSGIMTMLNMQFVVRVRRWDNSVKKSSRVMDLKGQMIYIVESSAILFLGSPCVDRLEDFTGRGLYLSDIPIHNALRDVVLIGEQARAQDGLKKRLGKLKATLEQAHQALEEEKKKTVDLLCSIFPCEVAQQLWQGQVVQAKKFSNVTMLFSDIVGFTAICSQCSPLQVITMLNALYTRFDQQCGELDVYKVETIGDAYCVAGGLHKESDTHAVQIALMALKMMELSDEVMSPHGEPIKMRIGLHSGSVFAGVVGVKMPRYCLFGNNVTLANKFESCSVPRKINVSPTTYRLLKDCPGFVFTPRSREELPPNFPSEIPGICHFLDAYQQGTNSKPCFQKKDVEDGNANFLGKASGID
Protocol: as §3
On the day of the assay, Coriell cells were plated on 96-well V-bottom culture plate (Corning Catalog #3894) at density of 200,000 cells per well in 100 ul culture media. Right before the assay, cells were spun down by centrifuging in a benchtop centrifuge (Beckman Model #TJ-25) at 300 g for 5 min, media was removed and cell pellets were carefully washed once with 200 μL of HBSS containing Ca^2+ and Mg^2+ (Gibco catalog #14025-075). The cells were spun down, then 90 μL per well of HBSS containing 0.5 mM IBMX was added to the cells and were incubated at 37° C. for 15 min. Then 10 μL per well of 10× compounds (at its final conc.) diluted in HBSS solution containing IBMX plus different concentration of NO donor, DETA (final concentration of 0, 10 μM, 30 μM) was added to the cells and incubated at 37° C. for another 20 min. Cell pellets were spun down and lysed with 0.1 N HCl (100 ul/well). cGMP was measured using a cGMP Biotrak EIA kit (GE cat no. RPN226). cGMP concentrations of the samples were calculated from the standard curve.

OC(CNc1nc(-c2cc(-c3ccon3)n(Cc3ccccc3F)n2)ncc1F)(C(F)(F)F)C(F)(F)F [Compound A]
gene expression level of Pparγ in liver (Pparγ): increased
gene expression level of Pparα in WAT (Pparα): increased
gene expression level of AMPK in WAT (AMPK): increased
levels of circulating ADMA (ADMA): reduced
gene expression level of PGC1α in white adipose tissue (WAT) (PGC1α [1]; 10 mg/kg in combination with enalapril at 3 mg/kg, FIG. 1A): increased

Fc1ccccc1Cc1nc(-c2nc(C(F)(F)F)n[nH]2)cn2ccnc12 [Compound B]
ATP production / ATP level [2]: increase
ATP production / ATP level [3]: increase
ATP production / ATP level [4]: increase
PGC1α expression in hypothalamus (PGC1α [5]): increased PGC1α expression significantly
TFAM gene expression level (TFAM; LHON patient cells (GM11605), FIG. 5A): increased
TFAM gene expression level (TFAM; Leigh patient cells (GM13740), FIG. 6A): increased
DDAH2 gene expression level (DDAH2; LHON patient cells (GM11605), FIG. 5B): increased
DDAH2 gene expression level (DDAH2; Leigh patient cells (GM13740), FIG. 6B): increased

NC(=O)[C@](O)(CNc1nc(-c2cc(-c3ccon3)n(Cc3ccccc3F)n2)ncc1F)C(F)(F)F [Compound D]
ATP production / ATP level [3]: increased ATP levels significantly
gene expression level of PGC1α in liver (PGC1α [1]; 30 mg/kg in combination with enalapril at 3 mg/kg, FIG. 1B): increased

Fc1ccccc1Cn1nc(-c2nc(C(F)(F)F)n[nH]2)c2cccnc21 [Compound E]
ATP production / ATP level [2]: significantly increase
ATP production / ATP level [3]: significantly increase
cGMP formation (sGC; LHON patient cells GM10742, FIG. 3B): significantly activated
cGMP formation (sGC; LHON patient cells GM11605, FIG. 3A): significantly activated
cGMP formation (sGC; Leigh patient cells GM13740, FIG. 3C): significantly activated
